Measurements reported in patent US5358950A, “Triazolopyrimidine derivatives which are angiotensin II receptor antagonists” (Laboratoires UPSA, priority 1991, dated 1994).

Test system: adrenal angiotensin II receptors
Experiment: Displacement of radiolabelled ligand [^125 I]-SIAII specifically bound to rat adrenal angiotensin II receptors
Type: binding
Conditions: rat adrenal homogenate, 60 min at 25° C.
Method: The affinity of the products of the examples for angiotensin II receptors is assessed by a technique of displacement of a radiolabelled ligand specifically bound to the adrenal angiotensin II receptors in the rat.
An aliquot of a rat adrenal homogenate is incubated in the presence of a single concentration of [^125 I]-SIAII(Sar^1 Tyr^4, Ile^8 -angiotensin II) which is an angiotensin II receptor antagonist, and two concentrations of competitive agents ([…]) for 60 min at 25° C.
The reaction is stopped by adding buffer, followed by rapid filtration through glass-paper filters. The non-specific binding is determined in the presence of angiotensin II.
The results are expressed, for the concentrations tested, as a percentage displacement of the radiolabelled ligand specifically bound to the adrenal angiotensin II receptors.

% displacement of the labelled ligand (1E-5M, 10 µM) [%] | % displacement of the labelled ligand (1E-7M, 0.1 µM) [%] | Structure (SMILES)
73 | 60 | CCCc1nc(C)n2ncnc2c1Cc1ccc(-c2ccccc2-c2nnn[nH]2)cc1 [Example 71, 7-n-propyl-5-methyl-8-{[2'-(5-tetrazolyl)-4-biphenylyl]methyl}-1,2,4-triazolo[1,5-c]pyrimidine]
60 | 45 | CCCc1nc(C)n2[nH]c(=O)nc2c1Cc1ccc(-c2ccccc2-c2nnn[nH]2)cc1 [Example 20, 7-n-Propyl-5-methyl-8-{[2'-(5-tetrazolyl)-4-biphenylyl]methyl}-1,2,4-triazolo[1,5-c]pyrimidin-2(3H)-one]
68 | 54 | CCCc1nc(C)n2c(=O)n(CCO)nc2c1Cc1ccc(-c2ccccc2-c2nnn[nH]2)cc1 [Example 25, 2-[7-n-Propyl-5-methyl-3-oxo-8-{[2'-(5-tetrazolyl)-4-biphenylyl]methyl}-2,3-dihydro-1,2,4-triazolo[4,3-c]pyrimidin-2-yl]ethanol]
71 | 58 | CCCc1nc(C)n2nc(N)nc2c1Cc1ccc(-c2ccccc2-c2nnn[nH]2)cc1 [Example 107, 7-n-Propyl-5-methyl-2-amino-8-{[2'-(5-tetrazolyl)-4-biphenylyl]methyl}-1,2,4-triazolo[1,5-c]pyrimidine]
67 | 46 | CCCc1nc(C)n2nc(C(=O)OCC)nc2c1Cc1ccc(-c2ccccc2-c2nnn[nH]2)cc1 [Example 109, Ethyl 7-n-propyl-5-methyl-8-{[2'-(5-tetrazolyl)-4-biphenylyl]methyl}-1,2,4-triazolo[1,5-c]pyrimidine-2-carboxylate]
63 | 48 | CCc1nc(C)n2nc(C)nc2c1Cc1ccc(-c2ccccc2-c2nn[nH]n2)cc1 [Example 90, 7-Ethyl-2 , 5-dimethyl-8-{[2 '-(5-tetrazolyl)-4-biphenylyl]methyl}-i, 2,4-triazolo[1,5-c]pyrimidine]
69 | 54 | CCCc1nc(C)n2nc(C)nc2c1Cc1ccc(-c2ccccc2-c2nnn[nH]2)cc1 [Example 74, 7-n-Propyl-2,5-dimethyl-8-{[2'-(5-tetrazolyl)-4-biphenylyl}methyl]-1,2,4-triazolo[1,5-c]pyrimidine]
67 | 33 | CCCc1nc(C)n2c(S)nnc2c1Cc1ccc(-c2ccccc2-c2nnn[nH]2)cc1 [Example 68, 7-n-Propyl-5-methyl-3-mercapto-8-{[2'-(5-tetrazolyl)-4-biphenylyl]methyl}-1,2,4-triazolo[4,3-c]pyrimidine]
74 | 59 | CCCc1nc(C)n2nc(NC)nc2c1Cc1ccc(-c2ccccc2-c2nnn[nH]2)cc1 [Example 80, 7-n-Propyl-5-methyl-2-methylamino-8-{[2'-(5-tetrazolyl)-4-biphenylyl]methyl}-1,2,4-triazolo [1,5-c]pyrimidine]
61 | 17 | CCCc1nc(CC)n2[nH]c(=O)nc2c1Cc1ccc(-c2ccccc2-c2nnn[nH]2)cc1 [Example 138, 7-n-Propyl-5-ethyl-8-{[2'-(5-tetrazolyl)-4-biphenylyl]methyl}-1,2,4-triazolo[1,5-c]pyrimidin-2(3H)-one]
67 | 52 | CCCc1nc(C)n2nc(CC)nc2c1Cc1ccc(-c2ccccc2-c2nnn[nH]2)cc1 [Example 78, 7-n-Propyl-5-methyl-8-{[2 '(5-tetrazolyl)-4-biphenylyl]methyl}-2-ethyl-1,2,4-triazolo[1,5-c]pyrimidine]
74 | 56 | CCCc1nc(C)n2nc(CC(=O)OCC)nc2c1Cc1ccc(-c2ccccc2-c2nnn[nH]2)cc1 [Example 146, Ethyl [7-n-propyl-5-methyl-8-{[2'-(5-tetrazolyl)-4-biphenylyl]methyl}-1,2,4-triazolo[1,5-c]pyrimidin-2-yl]acetate]
65 | 43 | CCCCc1nc(C)n2c(=O)[nH]nc2c1Cc1ccc(-c2ccccc2-c2nnn[nH]2)cc1 [Example 36, 7-n-Butyl-5-methyl-8-{[2'-(5-tetrazolyl)-4-biphenylyl]methyl}-1,2,4-triazolo[4,3-c]pyrimidin-3(2H)-one]
66 | 48 | CCCc1nc(C)n2c(=O)[nH]nc2c1Cc1ccc(-c2ccccc2-c2nnn[nH]2)cc1 [Example 19, 7-n-Propyl-5-methyl-8-{[2'-(5-tetrazolyl)-4-biphenylyl]methyl}-1,2,4-triazolo[4,3-c]pyrimidin-3(2H)-one]
69 | 57 | CCCc1nc(C)n2nc(COC)nc2c1Cc1ccc(-c2ccccc2-c2nnn[nH]2)cc1 [Example 152, 7-n-Propyl-5-methyl-2-methoxymethyl-8-{[2'-(5-tetrazolyl)-4-biphenylyl]methyl}-1,2,4-triazolo[1,5-c]pyrimidine]
60 | 41 | CCCCc1nc(C)n2[nH]c(=O)nc2c1Cc1ccc(-c2ccccc2-c2nnn[nH]2)cc1 [Example 112, 7-n-Butyl-5-methyl-8-{[2'(5-tetrazolyl)-4-biphenylyl]methyl}-1,2,4-triazolo[1,5-c]pyrimidin-2(3H)-one]
75 | 46 | CCCc1nc(C)n2nc(S)nc2c1Cc1ccc(-c2ccccc2-c2nnn[nH]2)cc1 [Example 42, 7-n-propyl-5-methyl-2-mercapto-8-{[2'-(5-tetrazolyl)-4-biphenylyl]methyl}-1,2,4-triazolo[1,5-c]pyrimidine]
60 | 38 | CCc1nc(C)n2[nH]c(=O)nc2c1Cc1ccc(-c2ccccc2-c2nnn[nH]2)cc1 [Example 97, 7-Ethyl-5-methyl-8-{[2'(5-tetrazolyl)-4-biphenylyl]methyl}-1,2,4-triazolo[1,5-c]pyrimidin-2(3H)-one]
